Assays:
[1] = system: Oat Aphid (Rhopalosiphum padi); assay: Activity against oat aphid, barley leaf disks; format: in vivo; conditions: 2500 ppm; leaf disks sprayed with 2.5 μl; 5 days; compared to 0% mortality of untreated controls
Description: Barlay leaf disk were placed into microtiterplates filled with 0.8% agar-agar and 2.5 ppm OPUS™. The leaf disks were sprayed with 2.5 μl of the test solution and 3 to 8 adult aphids were placed into the microtiterplates which were then closed and kept at 22-24° C. and 35-45% humidity under fluorescent light for 5 days. Mortality was assessed on the basis of vital aphids. Tests were replicated 2 times.

[2] = system: Boll Weevil (Anthonomus grandis); assay: Activity against boll weevil, eggs in microtiterplates; format: in vivo; conditions: eggs sprayed with 20 μl test solution, 3 to 5 days
Description: 10 to 15 eggs were placed into microtiterplates filled with 2% agar-agar in water and 300 ppm formaline. […] Mortality was assessed on the basis of the remaining unhatched eggs or larvae on the agar surface and/or quantity and depth of the digging channels caused by the hatched larvae. Tests were replicated 2 times.

[3] = system: Vetch Aphid (Megoura viciae); assay: Activity against vetch aphid, bean leaf disks; format: in vivo; conditions: foliar, 144 h, 2500 ppm, leaf disks sprayed with 2.5 μl, 6 days, compared to 0% mortality of untreated controls, read-out: mortality
Description: Bean leaf disks were placed into microtiterplates filled with 0.8% agar-agar and 2.5 ppm OPUS™. The leaf disks were sprayed with 2.5 μl of the test solution and 5 to 8 adult aphids were placed into the microtiterplates which were then closed and kept at 22-24° C. and 35-45% under fluorescent light for 6 days. Mortality was assessed on the basis of vital, reproduced aphids. Tests were replicated 2 times.

[4] = system: Cotton Aphid (Aphis gossypii); assay: Activity against cotton aphid, cotton cotyledon dip; format: in vivo; conditions: 120 h, cotyledons dipped, after 5 days
From the text: (§1) The active compounds were formulated in 50:50 acetone:water and 100 ppm Kinetic™ surfactant.
Cotton plants at the cotyledon stage (one plant per pot) were infested by placing a heavily infested leaf from the main colony on top of each cotyledon. The aphids were allowed to transfer to the host plant overnight, and the leaf used to transfer the aphids was removed. The cotyledons were dipped in the test solution and allowed to dry. After 5 days, mortality counts were made.

[5] = system: Southern Armyworm (Spodoptera eridania), 2nd Instar Larvae; assay: whole plant or invertebrate; format: in vivo; conditions: in Phaseolus lunatus, foliar, 120 h, 300 ppm, leaf dipped, at 5 days, read-out: mortality
Description: The active compounds were formulated for testing the activity against insects and arachnids as a 10.000 ppm solution in a mixture of 35% acetone and water, which was diluted with water, if needed.
A Sieva lima bean leaf was dipped in the test solution and allowed to dry. The leaf was then placed in a petri dish containing a filter paper on the bottom and ten 2nd instar caterpillars. At 5 days, observations are made of mortality and reduced feeding.

[6] = system: Silverleaf Whitefly (Bemisia argentifolii); assay: Activity against silverleaf whitefly, cotton cotyledon dip; format: in vivo; conditions: 72 h, cotyledons dipped, adults, 3 days after treatment
Description: as §1
Selected cotton plants were grown to the cotyledon state (one plant per pot). The cotyledons were dipped into the test solution to provide complete coverage of the foliage and placed in a well-vented area to dry. Each pot with treated seedling was placed in a plastic cup and 10 to 12 whitefly adults (approximately 3-5 day old) were introduced. The insects were collected using an aspirator and an 0.6 cm, non-toxic Tygon™ tubing (R-3603) connected to a barrier pipette tip. The tip, containing the collected insects, was then gently inserted into the soil containing the treated plant, allowing insects to crawl out of the tip to reach the foliage for feeding. The cups were covered with a reusable screened lid (150 micron mesh polyester screen PeCap from Tetko Inc). Test plants were maintained in the holding room at about 25° C. and 20-40% relative humidity for 3 days avoiding direct exposure to the fluorescent light (24 hour photoperiod) to prevent trapping of heat inside the cup. Mortality was assessed 3 days after treatment of the plants.

[7] = system: Yellowfever Mosquito (Aedes aegyptii); assay: Activity via glass contact; format: in vivo
From the text: 10. Activity Against Argentine Ant (Linepithema humile), Harvester Ant (Pogonomyrmex Californicus), Acrobat Ant (Crematogaster Spp.), Carpenter Ant (Camponotus floridanus), Fire Ant (Solenopsis invicta), House Fly (Musca domestica), Stable Fly (Stomoxys calcitrans), Flesh Fly (Sarcophaga sp.), Yellowfever Mosquito (Aedes aegyptii), House Mosquito (Culex quinquefasciatus), Malaria Mosquito (Anopheles albimanus), German Cockroach (Blattella Germanica), Cat Flea (Ctenocephalides felis), and Brown Dog Tick (Rhipicephalus sanguineus) Via Glass Contact
Glass vials were treated with 0.5 ml of a solution of active ingredient in acetone and allowed to dry. Insects or ticks were placed into each vial together with some food and moisture supply.

[8] = system: Yellowfever Mosquito (Aedes aegyptii) Larvae; assay: Activity against mosquito larvae via water treatment; format: in vivo; conditions: 10 ppm, water treatment, 4th-instar larvae, read-out: mortality of yellowfever mosquito
Description: 11. Activity Against Yellowfever Mosquito (Aedes aegyptii), House Mosquito (Culex quinquefasciatus) and Malaria Mosquito (Anopheles albimanus) Larvae Via Water Treatment
Well plates were used as test arenas. The active ingredient was dissolved in acetone and diluted with water to obtain the concentrations needed. The final solutions containing appr. 1% acetone were placed into each well. Approximately 10 mosquito larvae (4th-instars) in 1 ml water were added to each well. Larvae were fed one drop of liver powder each day. The dishes were covered and maintained at 22° C. Mortality was recorded daily and dead larvae and live or dead pupae were removed daily. At the end of the test remaining live larvae were recorded and percent mortality was calculated.

[9] = system: Tobacco Budworm (Heliothis virescens); assay: whole plant or invertebrate; conditions: 144 h
[10] = system: Diamond Back Moth (Plutella xylostella); assay: Activity against diamond back moth, cabbage leaf disk dip; format: in vivo; conditions: foliar, 300 ppm, leaf disk dipped, third instar larvae, after 72 h, read-out: mortality
Description: The active compounds were formulated in 50:50 acetone:water and 0.1% (vol/vol) Alkamuls EL 620 surfactant. A 6 cm leaf disk of cabbage leaves was dipped in the test solution for 3 seconds and allowed to air dry in a Petri plate lined with moist filter paper. The leaf disk was inoculated with 10 third instar larvae and kept at 25-27° C. and 50-60% humidity for 3 days. Mortality was assessed after 72 h of treatment.

| SMILES | mortality [1] | mortality at 2500 ppm [2] [%] | mortality at 2500 ppm [3] [%] | mortality at 300 ppm [4] [%] | mortality at 300 ppm [5] [%] | mortality at 300 ppm [6] [%] | mortality at 10 ppm [7] [%] | mortality at 10 ppm [8] [%] | mortality at 2500 ppm [9] [%] | mortality at 300 ppm [10] [%] |
| --- | --- | --- | --- | --- | --- | --- | --- | --- | --- | --- |
| Cc1cc(Cl)cc(C(=O)N=S(C(C)C)C(C)C)c1NC(=O)c1cc(C(F)(F)F)nn1-c1ncccc1Cl [I.3-1] | over 75% | – | – | – | – | – | – | – | – | – |
| Cc1cc(Cl)cc(C(=O)N=S(C)C)c1NC(=O)c1cc(Br)nn1-c1ncccc1Cl [I.3-4] | – | > 75 | > 75 | > 50 | > 75 | > 90 | > 70 | > 70 | > 75 | – |
| Cc1cccc(C(=O)N=S(C)C)c1NC(=O)c1cc(Br)nn1-c1ncccc1Cl [I.3-7] | – | > 75 | > 75 | > 50 | > 75 | – | – | > 70 | > 75 | > 75 |

From patent US20170015649A1, “N-Thio-anthranilamid compounds and their use as pesticides” (BASF SE, priority 2005, published 2017)
